From patent US20070258889A1, “NOVEL NANOPARTICLES AND USE THEREOF” (Montana State University, priority 2005, published 2007)
Converted amounts (≈) assume the structure as drawn.

Tests used:
Solubility (saturation) = assay type: physicochemical; conditions: with 1% DMF, aqueous buffer, room temperature, solutions in which the protein cages are stable
[1] = room temperature; cited from earlier work
tumor angiogenesis = conditions: mice; cited from earlier work
tumor lung colonization = conditions: mouse, in vivo; cited from earlier work
platlets and neutrophils = conditions: cited from earlier work
tumor cells = conditions: cited from earlier work
[2] = Singlet oxygen production assay (TEMP to TEMPO, EPR); conditions: 20 μM reactive dye, 50 mM TEMP, DPBS pH 7.4; free dye
Description: In order to analyze the singlet O2 production by protein RuIphen composite, the conversion of TEMP to TEMPO by singlet O2 was monitored by EPR. Briefly, the light induced production of singlet O2 assay was conducted in a serum vial open to the air with vigorous stirring. The reaction was conducted in 50 mM TEMP with DPBS at pH 7.4. The each of the reactions were normalized to 20 μM reactive dye (RuIphen or Rose Bengal). At each time point, 100 μL of the solution was removed and added to 10 μL of 1M sodium azide to quench the singlet O2 production. Hsp G41CRu was labeled with two different loadings of RuIphen 51% and 82%. […] In order to probe the loss of EPR signal in the free Ru^∥bpy3 control, free Ru^∥bpy3 was illuminated in the presence of purchased TEMPO both in the presence and absence of molecular O2.
Singlet Oxygen Production Assay. In a 3 mL clear glass serum vial (Wheaton), 20 µM ruthenium (either free or attached to protein cage) and 50 mM 2,2,6,6-tetramethyl-4-piperidone (TEMP) final concentration was added to DPBS pH 7.4. […] For the oxygen-free reaction, the serum vials are sealed and degassed under nitrogen The light was quantitated using an Extech Instrument EasyView light meter to be 511, 700 I×. […]

COc1cccc2c1C(=O)c1c(O)c3c(c(O)c1C2=O)C[C@@](O)(C(=O)CO)C[C@@H]3O[C@H]1C[C@H](N)[C@H](O)[C@H](C)O1 [doxorubicin]
solubility (Solubility (saturation)): ~2 µM (≈ 1.09 µg/mL)

CC(=O)Oc1ccccc1C(=O)O [acetylsalicylic acid]
solubility (saturation) [1]: ~18500 µM (≈ 3330 µg/mL)

CDPGYIGSRC [peptide 11]
tumor angiogenesis (tumor angiogenesis): inhibits tumor angiogenesis in mice
experimental tumor lung colonization (tumor lung colonization): reduces experimental tumor lung colonization
toxic effect on platelets and neutrophils (platlets and neutrophils): no toxic effect on these cells
invasion of basement membranes by tumor cells (tumor cells): effectively blocks invasion of basement membranes by tumor cells

O=C1OC2(c3ccc(O)cc3Oc3cc(O)ccc32)c2ccccc21 [fluorescein]
solubility (Solubility (saturation)): ~2 µM (≈ 0.665 µg/mL)

O=C([O-])c1c(Cl)c(Cl)c(Cl)c(Cl)c1-c1c2cc(I)c(=O)c(I)c-2oc2c(I)c([O-])c(I)cc12.[Na+].[Na+] [Rose Bengal]
increase in the amount of TEMPO generated [2]: 4 fold
